Assay results taken from ChEMBL document CHEMBL4251578, “Design, synthesis and biological evaluation of novel 2-aminobenzamides containing dithiocarbamate moiety as histone deacetylase inhibitors and potent antitumor agents” (Eur J Med Chem, 2018).

Legend:
MGC-803 [1] = assay: Antiproliferative activity against human MGC803 cells at 2 uM after 72 hrs by CCK-8 assay relative to control; type: functional; conditions: MGC-803, 72 h
A-375 = assay: Antiproliferative activity against human A375 cells at 8 uM after 72 hrs by CCK-8 assay relative to control; type: functional; conditions: A-375, 72 h
HeLa [2] = assay: Antiproliferative activity against human HeLa cells at 2 uM after 72 hrs by CCK-8 assay relative to control; type: functional
HeLa [3] = assay: Antiproliferative activity against human HeLa cells at 8 uM after 72 hrs by CCK-8 assay relative to control; type: functional
MGC-803 [4] = assay: Antiproliferative activity against human MGC803 cells after 72 hrs by CCK-8 assay; type: functional, cell-based; conditions: for IC50: MGC-803, 72 h
NCI-H1299 = assay: Antiproliferative activity against human NCI-H1299 cells after 72 hrs by CCK-8 assay; type: functional, cell-based; conditions: for IC50: NCI-H1299, 72 h
HCT-116 = assay: Antiproliferative activity against human HCT116 cells after 72 hrs by CCK-8 assay; type: functional, cell-based; conditions: for IC50: HCT-116, 72 h
Histone deacetylase 1 = Histone deacetylase 1 (Homo sapiens, UniProt Q13547); assay: Inhibition of human recombinant HDAC1 using Fluor de Lys-Green as substrate preincubated for 5 mins followed by substrate addition and measured after 1 hr by fluorescence assay
Chain of Histone deacetylase 1 (Q13547 whole entry): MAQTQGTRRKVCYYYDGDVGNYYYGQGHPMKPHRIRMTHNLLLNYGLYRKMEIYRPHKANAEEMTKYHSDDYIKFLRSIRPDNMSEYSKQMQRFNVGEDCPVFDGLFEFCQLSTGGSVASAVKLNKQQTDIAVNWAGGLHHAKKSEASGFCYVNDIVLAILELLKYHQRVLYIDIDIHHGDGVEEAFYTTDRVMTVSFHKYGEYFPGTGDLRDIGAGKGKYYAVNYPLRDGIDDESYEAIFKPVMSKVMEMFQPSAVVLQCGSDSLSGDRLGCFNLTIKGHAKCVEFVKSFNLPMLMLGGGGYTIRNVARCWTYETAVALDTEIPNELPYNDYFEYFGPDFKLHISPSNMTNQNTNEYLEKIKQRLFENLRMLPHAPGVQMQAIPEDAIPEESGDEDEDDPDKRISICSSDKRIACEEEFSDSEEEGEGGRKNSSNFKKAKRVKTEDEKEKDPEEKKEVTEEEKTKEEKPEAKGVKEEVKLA

Histone deacetylase 2 = Histone deacetylase 2 (Homo sapiens, UniProt Q92769); assay: Inhibition of human recombinant HDAC2 using Fluor de Lys-Green as substrate preincubated for 5 mins followed by substrate addition and measured after 1 hr by fluorescence assay
Chain of Histone deacetylase 2 (Q92769 whole entry): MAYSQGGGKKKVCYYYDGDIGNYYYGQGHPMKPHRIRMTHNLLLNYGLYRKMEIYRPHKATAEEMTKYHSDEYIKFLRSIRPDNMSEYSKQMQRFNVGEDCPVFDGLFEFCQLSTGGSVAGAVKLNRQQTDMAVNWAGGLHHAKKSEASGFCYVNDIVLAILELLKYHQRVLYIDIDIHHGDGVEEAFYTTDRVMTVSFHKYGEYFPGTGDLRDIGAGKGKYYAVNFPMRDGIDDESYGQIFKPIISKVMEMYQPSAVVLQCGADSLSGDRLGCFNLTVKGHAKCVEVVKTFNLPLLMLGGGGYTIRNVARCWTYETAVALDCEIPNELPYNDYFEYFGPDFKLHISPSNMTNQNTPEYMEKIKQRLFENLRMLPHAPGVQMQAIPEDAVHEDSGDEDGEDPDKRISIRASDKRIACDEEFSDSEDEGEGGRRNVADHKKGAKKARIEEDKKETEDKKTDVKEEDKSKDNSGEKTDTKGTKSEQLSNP

[5] = target: T1, Protein deacetylase HDAC6 (Homo sapiens, UniProt Q9UBN7); assay: Inhibition of human recombinant HDAC6 using Fluor de Lys-Green as substrate preincubated for 5 mins followed by substrate addition and measured after 1 hr by fluorescence assay
T1 sequence (Q9UBN7 whole entry): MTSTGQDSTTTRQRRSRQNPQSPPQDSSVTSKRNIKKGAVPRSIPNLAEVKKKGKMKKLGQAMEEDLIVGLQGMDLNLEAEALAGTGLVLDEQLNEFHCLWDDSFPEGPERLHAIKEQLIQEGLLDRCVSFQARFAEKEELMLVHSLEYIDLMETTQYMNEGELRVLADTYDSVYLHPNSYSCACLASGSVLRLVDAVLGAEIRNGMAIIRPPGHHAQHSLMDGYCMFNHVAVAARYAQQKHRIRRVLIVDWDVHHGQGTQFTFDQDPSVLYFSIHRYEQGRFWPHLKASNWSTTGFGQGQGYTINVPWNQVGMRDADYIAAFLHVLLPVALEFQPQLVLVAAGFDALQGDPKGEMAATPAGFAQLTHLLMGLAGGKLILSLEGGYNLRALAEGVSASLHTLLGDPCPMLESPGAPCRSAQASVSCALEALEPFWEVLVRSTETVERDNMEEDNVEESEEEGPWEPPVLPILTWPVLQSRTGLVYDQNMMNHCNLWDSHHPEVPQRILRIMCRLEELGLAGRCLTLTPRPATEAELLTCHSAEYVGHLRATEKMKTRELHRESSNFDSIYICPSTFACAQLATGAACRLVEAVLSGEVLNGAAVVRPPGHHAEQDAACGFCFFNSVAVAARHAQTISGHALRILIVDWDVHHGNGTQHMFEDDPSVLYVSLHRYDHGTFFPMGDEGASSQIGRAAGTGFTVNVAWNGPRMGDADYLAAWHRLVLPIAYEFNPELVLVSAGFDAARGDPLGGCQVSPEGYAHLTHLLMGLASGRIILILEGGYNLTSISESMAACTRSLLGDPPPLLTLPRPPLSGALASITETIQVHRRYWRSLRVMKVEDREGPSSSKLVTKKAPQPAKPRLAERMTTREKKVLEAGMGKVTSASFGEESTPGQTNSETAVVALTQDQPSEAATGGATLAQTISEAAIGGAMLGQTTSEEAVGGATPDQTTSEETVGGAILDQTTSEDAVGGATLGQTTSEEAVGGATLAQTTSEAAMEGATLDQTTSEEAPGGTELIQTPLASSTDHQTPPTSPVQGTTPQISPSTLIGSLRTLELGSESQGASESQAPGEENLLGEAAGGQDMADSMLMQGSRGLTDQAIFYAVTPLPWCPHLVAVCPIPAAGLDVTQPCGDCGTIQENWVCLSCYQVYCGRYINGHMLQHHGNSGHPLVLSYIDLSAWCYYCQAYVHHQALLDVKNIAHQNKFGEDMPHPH

SMMC-7721 [6] = assay: Induction of apoptosis in human SMMC7721 cells assessed as early apoptotic cells at 0.125 umol/L after 72 hrs by Alexa Fluor 488 Annexin/propidium iodide staining-based flow cytometric analysis (reference value: 0.09%); type: functional
SMMC-7721 [7] = assay: Induction of apoptosis in human SMMC7721 cells assessed as viable cells at 1 umol/L after 72 hrs by Alexa Fluor 488 Annexin/propidium iodide staining-based flow cytometric analysis (reference value: 97.14%); type: functional; conditions: SMMC-7721, 72 h, read-out: Activity
SMMC-7721 [8] = assay: Induction of apoptosis in human SMMC7721 cells assessed as necrotic cells at 1 umol/L after 72 hrs by Alexa Fluor 488 Annexin/propidium iodide staining-based flow cytometric analysis (reference value: 2.48%); type: functional
SMMC-7721 [9] = assay: Induction of apoptosis in human SMMC7721 cells assessed as viable cells at 4 umol/L after 72 hrs by Alexa Fluor 488 Annexin/propidium iodide staining-based flow cytometric analysis (reference value: 97.14%); type: functional; conditions: SMMC-7721, 72 h, read-out: Activity
SMMC-7721 [10] = assay: Induction of apoptosis in human SMMC7721 cells assessed as early apoptotic cells at 4 umol/L after 72 hrs by Alexa Fluor 488 Annexin/propidium iodide staining-based flow cytometric analysis (reference value: 0.09%); type: functional
SMMC-7721 [11] = assay: Induction of apoptosis in human SMMC7721 cells assessed as late apoptotic cells at 4 umol/L after 72 hrs by Alexa Fluor 488 Annexin/propidium iodide staining-based flow cytometric analysis (reference value: 0.29%); type: functional
SMMC-7721 [12] = assay: Cell cycle arrest in human SMMC7721 cells assessed as accumulation of cells at G0/G1 phase at 0.125 umol/L after 72 hrs by propidium iodide staining-based flow cytometric analysis (reference value: 80.65%); type: functional
SMMC-7721 [13] = assay: Cell cycle arrest in human SMMC7721 cells assessed as accumulation of cells at S phase at 0.125 umol/L after 72 hrs by propidium iodide staining-based flow cytometric analysis (reference value: 5.21%); type: functional
SMMC-7721 [14] = assay: Cell cycle arrest in human SMMC7721 cells assessed as accumulation of cells at G2/M phase at 1 umol/L after 72 hrs by propidium iodide staining-based flow cytometric analysis (reference value: 14.14%); type: functional
SMMC-7721 [15] = assay: Cell cycle arrest in human SMMC7721 cells assessed as accumulation of cells at G0/G1 phase at 4 umol/L after 72 hrs by propidium iodide staining-based flow cytometric analysis (reference value: 80.65%); type: functional
SMMC-7721 [16] = assay: Cell cycle arrest in human SMMC7721 cells assessed as accumulation of cells at G2/M phase at 4 umol/L after 72 hrs by propidium iodide staining-based flow cytometric analysis (reference value: 14.14%); type: functional
SMMC-7721 [17] = assay: Induction of apoptosis in human SMMC7721 cells after 72 hrs by Alexa Fluor 488 Annexin/propidium iodide staining-based flow cytometric analysis; type: functional, cell-based

| IC50 (MGC-803 [4]) [nM] | IC50 (NCI-H1299) [nM] | IC50 (HCT-116) [nM] | IC50 (Histone deacetylase 1) [nM] | IC50 (Histone deacetylase 2) [nM] | IC50 [5] [nM] | Compound | inhibition at 2 µM (MGC-803 [1]) [%] | inhibition at 8 µM (A-375) [%] | inhibition at 2 µM (HeLa [2]) [%] | inhibition at 8 µM (HeLa [3]) [%] | Activity (SMMC-7721 [6]) [%] | viability at 1 µM (SMMC-7721 [7]) [%] | Activity (SMMC-7721 [8]) [%] | viability at 4 µM (SMMC-7721 [9]) [%] | Activity (SMMC-7721 [10]) [%] | Activity (SMMC-7721 [11]) [%] | Activity (SMMC-7721 [12]) | Activity (SMMC-7721 [12]; record 2) [%] | Activity (SMMC-7721 [13]) [%] | Activity (SMMC-7721 [14]) [%] | also measured |
| --- | --- | --- | --- | --- | --- | --- | --- | --- | --- | --- | --- | --- | --- | --- | --- | --- | --- | --- | --- | --- | --- |
| 1580 | 2490 | 540 | 480 | 470 | > 40000 | Nc1ccccc1NC(=O)c1ccc(CSC(=S)N2CCN(c3ccncc3)CC2)cc1 | 64.8 | 90.7 | 77 | 77.4 | 3.66 | 66.7 | 5.01 | 24.3 | 19.79 | 52.78 | Dose-dependent effect | 80.71 | 7.28 | 13.68 | Activity (MGC-803 [4]): Dose-dependent effect; Activity (NCI-H1299): Dose-dependent effect; Activity (HCT-116): Dose-dependent effect; Activity (SMMC-7721 [15]): 85.19%; Activity (SMMC-7721 [16]): 12.05%; Activity (SMMC-7721 [17]): Dose-dependent effect |
| 940 | 980 | 1560 | 2570 | 3230 | > 40000 | Nc1ccccc1NC(=O)c1ccc(CSC(=S)N2CCc3ccccc3C2)cc1 | 80.9 | 86.7 | 54.4 | 76.3 | 14.71 | 57.3 | 2.9 | 46 | 25.36 | 26.7 | Dose-dependent effect | 78.41 | 5.7 | 23.16 | Activity (SMMC-7721 [15]): 64.06%; Activity (SMMC-7721 [16]): 28.31%; Activity (SMMC-7721 [17]): Dose-dependent effect |
| 1370 | 750 | 750 | 1380 | 900 | > 40000 | CCN(Cc1ccncc1)C(=S)SCc1ccc(C(=O)Nc2ccccc2N)cc1 | 71.6 | 86.2 | 63.5 | 77.7 | 2.75 | 54.7 | 13.18 | 43 | 23.81 | 31.88 | Dose-dependent effect | 81.27 | 6.81 | 21.11 | Activity (SMMC-7721 [15]): 41.87%; Activity (SMMC-7721 [16]): 48.94%; Activity (SMMC-7721 [17]): Dose-dependent effect |
